SMILES strings stand for the structures.

The test system of assay [1] is ILPR-DNA a2 (DNA, G4) ACAGGGGTGTGGGGACAGGGGTGTGGGG
In words: fluorimetric titration. The following applies: K+ 95 mM, potassium phosphate buffer, pH 7.0, 20 °C, DNA concentration in nucleotide bases, per base.

Assay [2] relates to Fa2T (DNA, G4) ACAGGGGTGTGGGGACAGGGGTGTGGGG
In words: FRET melting. The following applies: K+ 10 mM, Li+ 90 mM, Na+ 10 mM; cacodylate buffer, pH 7.2; DNA 0.2 µM; ligand–DNA ratio 5.0.

The subject of assay [3] is 22AG (DNA, G4) AGGGTTAGGGTTAGGGTTAGGG
The experiment in a line: fluorimetric titration. The following applies: K+ 95 mM; 20 °C; DNA concentration in oligonucleotide.

For assay [4] the test system is unchanged. The experiment in a line: CD spectroscopy (induced CD).

With `CN1C(=CC=C(C=Cc2sc3ccccc3[n+]2C)C=Cc2sc3ccccc3[n+]2C)Sc2ccccc21`, in assay [1], the “Kb^a2” value worked out at 1.2e+06 M⁻¹. The ΔTm in assay [2] was determined as 4.9 ± 0.5 °C.

Take `c1cc[n+]2cc3c(cc2c1)c1cc2cccc[n+]2cc1c1c2c[n+]4ccccc4cc2c2cc4cccc[n+]4cc2c31`: the “Kb^a2” value in assay [1] stood at 3.5e+06 M⁻¹. Also, the ΔTm in assay [2] was 5.8 ± 0.5 °C.

Regarding `CN1C=CC(=CC=C(C=Cc2cc[n+](C)c3ccccc23)C=Cc2cc[n+](C)c3ccccc23)c2ccccc21`, in assay [3], the “Kb^22AG” value was determined as 200000 M⁻¹. For the same compound, the “Kb^a2” value in assay [1] came to 200000 M⁻¹. The ΔTm in assay [2] is 3.5 ± 0.5 °C.

Take `CN1C(=CC=C(C=Cc2ccc3ccccc3[n+]2C)C=Cc2ccc3ccccc3[n+]2C)C=Cc2ccccc21`: in assay [3], the “Kb^22AG” value amounted to 200000 M⁻¹. Besides, in assay [1], the “Kb^a2” value came to 2.7e+06 M⁻¹. In addition, the ΔTm in assay [2] turned out to be 14.5 ± 0.5 °C.

In the case of `C[n+]1ccc(-c2c3nc(c(-c4cc[n+](C)cc4)c4ccc([nH]4)c(-c4cc[n+](C)cc4)c4nc(c(-c5cc[n+](C)cc5)c5ccc2[nH]5)C=C4)C=C3)cc1`, the “Kb^a2” value in assay [1] was 2.2e+06 M⁻¹. Besides, the ΔTm in assay [2] stood at 6.3 ± 0.5 °C.

For the compound `CN1C(=CC=C(C=Cc2ccc3ccccc3[n+]2C)C=Cc2ccc3ccccc3[n+]2C)C(C)(C)c2ccccc21`, the “Kb^22AG” value in assay [3] was determined as 900000 M⁻¹. In assay [1] (site 1 of 2), the “Kb^a2” value amounted to 5.5e+06 M⁻¹. For the same compound, the ΔTm in assay [2] was determined as 3.7 ± 0.5 °C.

Take `CN1C(=Cc2cc[n+](C)c3ccccc23)Sc2ccccc21`: the binding entry in assay [4] is “yes”. Moreover, the “Kb^a2” value in assay [1] is 300000 M⁻¹. Further, the ΔTm in assay [2] is 1.8 ± 0.5 °C.

`CN1C(=CC=C(C=CC2=[N+](C)c3ccccc3C2(C)C)C=CC2=[N+](C)c3ccccc3C2(C)C)C=Cc2ccccc21`: the “Kb^22AG” value in assay [3] was found to be 390000 M⁻¹. In addition, the “Kb^a2” value in assay [1] (site 1 of 2) is 1.7e+07 M⁻¹. Further, the ΔTm in assay [2] was determined as 3.4 ± 0.5 °C.

On to `COc1cc2cc3c4cc(OC)c(OC)cc4cc[n+]3c(C)c2cc1OC`, for which the “Kb^a2” value in assay [1] stood at 2.5e+06 M⁻¹. In addition, the ΔTm in assay [2] was found to be 3.1 ± 0.5 °C.

With `C[n+]1cc(NC(=O)c2cccc(C(=O)Nc3cc4ccccc4[n+](C)c3)n2)cc2ccccc21`, the “Kb^a2” value in assay [1] was found to be 2.4e+06 M⁻¹. The ΔTm in assay [2] came out at 14.9 ± 0.5 °C.

The ΔTm is the shift of the melting midpoint relative to a reference.
